The values that follow come from patent publication US20240109930A1, “TRIAZOLYL-METHYL SUBSTITUTED ALPHA-D-GALACTOPYRANOSIDE DERIVATIVES” (Idorsia Pharmaceuticals Ltd, priority 2021, published 2024).

Broadly, the IC50 is the concentration needed to halve the response being measured. Higher therefore signals weaker potency.

For assay [1], the target named is human Gal-3 (hGal-3) (Homo sapiens (Human), UniProt P17931). Briefly: Competitive binding assay: biotinylated hGal-3 binding to microplate-adsorbed asialofetuin (ASF). To be noted: IC50 values from several measurements given as geomean. The method, boiled down: (§1)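 Biotinylated hGal-3 or hGal-1 (preferably cysteine-free Cys→Ser mutant), 300–1000 ng/mL, competes with compound for ASF-coated wells for 3 h at 4 °C. Bound lectin detected with streptavidin-peroxidase (80 ng/mL, 1 h, 4 °C) and ABTS by absorbance; IC50 reported as geomean of several runs.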

The target of assay [2] is human Gal-1 (hGal-1) (Homo sapiens, UniProt P09382, C131S/C17S/C43S/C61S/C89S). Briefly: Competitive binding assay: biotinylated hGal-1 binding to microplate-adsorbed asialofetuin (ASF). The following applies: IC50 values from several measurements given as geomean. Put shortly: as §1

Sequence of human Gal-3 (hGal-3) (P17931 whole entry): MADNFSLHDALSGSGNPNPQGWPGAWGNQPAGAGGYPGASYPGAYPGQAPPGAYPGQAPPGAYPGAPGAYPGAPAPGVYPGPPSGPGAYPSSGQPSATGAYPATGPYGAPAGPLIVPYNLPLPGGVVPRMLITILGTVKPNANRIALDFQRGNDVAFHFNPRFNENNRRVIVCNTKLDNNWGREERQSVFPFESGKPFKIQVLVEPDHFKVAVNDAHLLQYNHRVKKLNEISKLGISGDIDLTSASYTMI

As for `CO[C@@H]1[C@@H](n2cc(-c3ccc(Br)c(F)c3F)nn2)[C@@H](O)[C@@H](CO)O[C@@H]1Cc1cn(C2(C(F)F)CCC2)nn1` [Ex 4.1.43.], the IC50 in assay [1] came out at 30 nM; in assay [2], 960 nM.

As for `CO[C@@H]1[C@@H](n2cc(-c3ccc(Cl)c(F)c3F)nn2)[C@@H](O)[C@@H](CO)O[C@@H]1Cc1cn(C2CC(F)C2)nn1` (single isomer, unassigned) [Example 2.1.60.A], the IC50 stood at 20 nM in assay [1] and 690 nM in assay [2].

On to `CO[C@@H]1[C@@H](n2cc(-c3ccc(F)c(F)c3F)nn2)[C@@H](O)[C@@H](CO)O[C@@H]1Cc1cn(C2(C)CCC2)nn1` [Ex 3.1.13.], for which the figures for the IC50 in assay [1] and in assay [2] were 30 nM and 290 nM, respectively.

In the case of `CO[C@@H]1[C@@H](n2cc(-c3ccc(C)c(F)c3F)nn2)[C@@H](O)[C@@H](CO)O[C@@H]1Cn1cc(C2(O)CC2)nn1` [Ex 1.2.36.], the IC50 in assay [1] amounted to 80 nM; in assay [2], 7710 nM.

As to `CO[C@@H]1[C@@H](n2cc(-c3ccc(C)c(F)c3F)nn2)[C@@H](O)[C@@H](CO)O[C@@H]1Cc1cn([C@@H]2COCC[C@H]2O)nn1` [Ex 1.1.1.], the IC50 in assay [1] was determined as 50 nM; in assay [2] it was 2610 nM.

With `CO[C@@H]1[C@@H](n2cc(-c3ccc(F)c(F)c3F)nn2)[C@@H](O)[C@@H](CO)O[C@@H]1Cc1cn(C2(CF)COC2)nn1` [Ex 3.1.52.], the IC50 came out at 30 nM in assay [1] and 240 nM in assay [2].

Consider `CO[C@@H]1[C@@H](n2cc(-c3ccc(C#N)c(F)c3F)nn2)[C@@H](O)[C@@H](CO)O[C@@H]1Cc1cn(C2(C(F)F)COC2)nn1` [Ex 5.1.53., 4-(1-((2R,3R,4S,5R,6R)-2-((1-(3-(Difluoromethyl)oxetan-3-yl)-1H-1,2,3-triazol-4-yl)methyl)-5-hydroxy-6-(hydroxymethyl)-3-methoxytetrahydro-2H-pyran-4-yl)-1H-1,2,3-triazol-4-yl)-2,3-difluorobenzonitrile], for which the IC50 amounted to 60 nM in assay [1] and 1350 nM in assay [2].

As for `CO[C@@H]1[C@@H](n2cc(-c3ccc(F)c(F)c3F)nn2)[C@@H](O)[C@@H](CO)O[C@@H]1Cc1cn(C2(C(F)F)CC2)nn1` [Ex 3.1.51.], the values for the IC50 in assay [1] and in assay [2] were 40 nM and 240 nM, respectively.

In the case of `CO[C@@H]1[C@@H](n2cc(-c3ccc(F)c(F)c3F)nn2)[C@@H](O)[C@@H](CO)O[C@@H]1Cn1cc(C(C)(C)O)nn1` [Ex 3.2.34.], the IC50 in assay [1] is 440 nM; in assay [2], 720 nM.

Consider `CO[C@@H]1[C@@H](n2cc(-c3ccc(F)c(F)c3F)nn2)[C@@H](O)[C@@H](CO)O[C@@H]1Cc1cn([C@@H]2CCOC[C@H]2F)nn1` (single isomer, unassigned) [Example 3.1.66.C, (2R,3R,4S,5R,6R)-6-((1-((3S*,4R*)-3-fluorotetrahydro-2H-pyran-4-yl)-1H-1,2,3-triazol-4-yl)methyl)-2-(hydroxymethyl)-5-methoxy-4-(4-(2,3,4-trifluorophenyl)-1H-1,2,3-triazol-1-yl)tetrahydro-2H-pyran-3-ol], for which the half-inhibitory concentration (IC50) in assay [1] turned out to be 40 nM; in assay [2], 270 nM.

As for `CO[C@@H]1[C@@H](n2cc(-c3ccc(Br)c(F)c3F)nn2)[C@@H](O)[C@@H](CO)O[C@@H]1Cn1cc(C(C)(C)O)nn1` [Ex 4.2.34.], the figures for the IC50 in assay [1] and in assay [2] were 100 nM and 5490 nM, respectively.

Turning to `CO[C@@H]1[C@@H](n2cc(-c3ccc(C)c(F)c3F)nn2)[C@@H](O)[C@@H](CO)O[C@@H]1Cc1cn(C2(CO)CC2)nn1` [Ex 1.1.4.], the IC50 is 40 nM in assay [1] and 2570 nM in assay [2].

Consider `CO[C@@H]1[C@@H](n2cc(-c3ccc(Br)c(F)c3F)nn2)[C@@H](O)[C@@H](CO)O[C@@H]1Cc1cn(C2(CF)COC2)nn1` [Ex 4.1.52., (2R,3R,4S,5R,6R)-4-(4-(4-bromo-2,3-difluorophenyl)-1H-1,2,3-triazol-1-yl)-6-((1-(3-(fluoromethyl)oxetan-3-yl)-1H-1,2,3-triazol-4-yl)methyl)-2-(hydroxymethyl)-5-methoxytetrahydro-2H-pyran-3-ol], for which the concentration for half-maximal inhibition (IC50) in assay [1] is 30 nM; in assay [2], 850 nM.

Turning to `CO[C@@H]1[C@@H](n2cc(-c3ccc(Cl)c(F)c3F)nn2)[C@@H](O)[C@@H](CO)O[C@@H]1Cc1cn(C2(CF)CC2(F)F)nn1` (stereo partly drawn) [Ex 2.1.76., (2R,3R,4S,5R,6R)-4-(4-(4-chloro-2,3-difluorophenyl)-1H-1,2,3-triazol-1-yl)-6-((1-(2,2-difluoro-1-(fluoromethyl)cyclopropyl)-1H-1,2,3-triazol-4-yl)methyl)-2-(hydroxymethyl)-5-methoxytetrahydro-2H-pyran-3-ol], the values for the half-inhibitory concentration (IC50) in assay [1] and in assay [2] were 20 nM and 810 nM, respectively.

For the molecule `CO[C@@H]1[C@@H](n2cc(-c3ccc(Br)c(F)c3F)nn2)[C@@H](O)[C@@H](CO)O[C@@H]1Cn1cc(C2(O)CCCC2)nn1` [Ex 4.2.33.], the values for the IC50 in assay [1] and in assay [2] were 100 nM and 4110 nM, respectively.

For `CO[C@@H]1[C@@H](n2cc(-c3ccc(Cl)c(F)c3F)nn2)[C@@H](O)[C@@H](CO)O[C@@H]1Cc1cn(C23COC(C)(C2)C3)nn1` [Ex 2.1.59., (2R,3R,4S,5R,6R)-4-(4-(4-chloro-2,3-difluorophenyl)-1H-1,2,3-triazol-1-yl)-2-(hydroxymethyl)-5-methoxy-6-((1-(1-methyl-2-oxabicyclo[2.1.1]hexan-4-yl)-1H-1,2,3-triazol-4-yl)methyl)tetrahydro-2H-pyran-3-ol], the IC50 is 50 nM in assay [1] and 2370 nM in assay [2].

As to `COC1=C(N2CC(c3ccc(C)c(F)c3F)NN2)C(O)=C(CO)O[C@@H]1Cn1cc(C23CCC(NC(=O)OC(C)(C)C)(CC2)CC3)nn1` (stereo partly shown) [Ex 1.2.37.], the IC50 is 20 nM in assay [1] and 9400 nM in assay [2].

Consider `CO[C@@H]1[C@@H](n2cc(-c3ccc(F)c(F)c3F)nn2)[C@@H](O)[C@@H](CO)O[C@@H]1Cc1cn(C2CCC23CCC3)nn1` (stereo partly shown) [Ex 3.1.82.], for which the half-maximal inhibitory concentration (IC50) in assay [1] stood at 50 nM; in assay [2], 370 nM.

In the case of `CO[C@@H]1[C@@H](n2cc(-c3ccc(Cl)c(F)c3F)nn2)[C@@H](O)[C@@H](CO)O[C@@H]1Cc1cn([C@H]2CCCC[C@H]2F)nn1` [Example 2.1.81.B, (2R,3R,4S,5R,6R)-4-(4-(4-chloro-2,3-difluorophenyl)-1H-1,2,3-triazol-1-yl)-6-((1-((1S,2R)-2-fluorocyclohexyl)-1H-1,2,3-triazol-4-yl)methyl)-2-(hydroxymethyl)-5-methoxytetrahydro-2H-pyran-3-ol], the IC50 in assay [1] turned out to be 40 nM; in assay [2] it was 3050 nM.

Turning to `CO[C@@H]1[C@@H](n2cc(-c3ccc(C)c(F)c3F)nn2)[C@@H](O)[C@@H](CO)O[C@@H]1Cc1cn(C2(CCO)COC2)nn1` [Ex 1.1.22.], the IC50 was 40 nM in assay [1] and 690 nM in assay [2].

With `CO[C@@H]1[C@@H](n2cc(-c3ccc(C)c(F)c3F)nn2)[C@@H](O)[C@@H](CO)O[C@@H]1Cn1cc(C2CCCC2)nn1` [Ex 1.2.32.], the IC50 stood at 60 nM in assay [1] and 5130 nM in assay [2].

For the molecule `CO[C@@H]1[C@@H](n2cc(-c3ccc(Cl)c(F)c3F)nn2)[C@@H](O)[C@@H](CO)O[C@@H]1Cc1cn(C23CCC(O)(CC2)CC3)nn1` [Ex 2.1.8.], the values for the half-maximal inhibitory concentration (IC50) in assay [1] and in assay [2] were 30 nM and 4430 nM, respectively.

Turning to `CO[C@@H]1[C@@H](n2cc(-c3ccc(F)c(F)c3F)nn2)[C@@H](O)[C@@H](CO)O[C@@H]1Cc1cn(C2CC3(COC3)C2)nn1` [Ex 3.1.16.], the IC50 in assay [1] turned out to be 120 nM; in assay [2], 1110 nM.

As to `CO[C@@H]1[C@@H](n2cc(-c3ccc(Cl)c(F)c3F)nn2)[C@@H](O)[C@@H](CO)O[C@@H]1Cc1cn([C@H]2CCOC[C@@H]2F)nn1` [Example 2.1.66.D, (2R,3R,4S,5R,6R)-4-(4-(4-chloro-2,3-difluorophenyl)-1H-1,2,3-triazol-1-yl)-6-((1-((3R,4S)-3-fluorotetrahydro-2H-pyran-4-yl)-1H-1,2,3-triazol-4-yl)methyl)-2-(hydroxymethyl)-5-methoxytetrahydro-2H-pyran-3-ol], the IC50 in assay [1] came out at 10 nM; in assay [2] it was 780 nM.

As for `CCC(C)(C)n1cc(C[C@H]2O[C@H](CO)[C@H](O)[C@H](n3cc(-c4ccc(Cl)c(F)c4F)nn3)[C@H]2OC)nn1` [Ex 2.1.49., (2R,3R,4S,5R,6R)-4-(4-(4-Chloro-2,3-difluorophenyl)-1H-1,2,3-triazol-1-yl)-2-(hydroxymethyl)-5-methoxy-6-((1-(tert-pentyl)-1H-1,2,3-triazol-4-yl)methyl)tetrahydro-2H-pyran-3-ol], the IC50 in assay [1] amounted to 30 nM; in assay [2], 1330 nM.

Regarding `CO[C@@H]1[C@@H](n2cc(-c3ccc(F)c(F)c3F)nn2)[C@@H](O)[C@@H](CO)O[C@@H]1Cc1cn(C2(CF)CC2)nn1` [Ex 3.1.46., (2R,3R,4S,5R,6R)-6-((1-(1-(fluoromethyl)cyclopropyl)-1H-1,2,3-triazol-4-yl)methyl)-2-(hydroxymethyl)-5-methoxy-4-(4-(2,3,4-trifluorophenyl)-1H-1,2,3-triazol-1-yl)tetrahydro-2H-pyran-3-ol], the values for the IC50 in assay [1] and in assay [2] were 70 nM and 400 nM, respectively.

Take `CO[C@@H]1[C@@H](n2cc(-c3ccc(Cl)c(F)c3F)nn2)[C@@H](O)[C@@H](CO)O[C@@H]1Cc1cn(C2CC23CC3(F)F)nn1` (stereo partly drawn) [Ex 2.1.75., (2R,3R,4S,5R,6R)-4-(4-(4-chloro-2,3-difluorophenyl)-1H-1,2,3-triazol-1-yl)-6-((1-(4,4-difluorospiro[2.2]pentan-1-yl)-1H-1,2,3-triazol-4-yl)methyl)-2-(hydroxymethyl)-5-methoxytetrahydro-2H-pyran-3-ol]: the IC50 in assay [1] came out at 50 nM; in assay [2], 2780 nM.

In the case of `CO[C@@H]1[C@@H](n2cc(-c3ccc(Br)c(F)c3F)nn2)[C@@H](O)[C@@H](CO)O[C@@H]1Cn1cc(C2(O)CC2)nn1` [Ex 4.2.36.], the IC50 in assay [1] was determined as 130 nM; in assay [2], 5910 nM.

In the case of `CO[C@@H]1[C@@H](n2cc(-c3ccc(F)c(F)c3F)nn2)[C@@H](O)[C@@H](CO)O[C@@H]1Cc1cn(C23CC(C2)C3)nn1` [Ex 3.1.12.], the IC50 was found to be 60 nM in assay [1] and 950 nM in assay [2].
